Read-outs that look alike come from different tables or passages of the source. Bridges are numbered along the chain shown (N, C = ends). Where no end group is shown, it is not given here.

B2: murine amylin (peptide, UniProt P12968 38-74, looked up)
peptide: KCNTATCATQRLANFLVRSSNNLGPVLPPTNVGSNTY-NH2
modifications: disulfide 2-7; also: FITC (<1 mol/mol, position not given here) on labelled copy only
notes: murine amylin (islet amyloid polypeptide), the 37-residue hormone; numbers count on: the mature protein; The unlabelled ligand and the FITC-labelled copy are written as one molecule; also called free murine amylin; non-conjugated amylin; source: synthetic peptide, bought: Genemed Synthesis Inc

The conditions of data set [1]: cited from earlier work. An excerpt:
One additional limitation for the use of the currently available amylinomimetic compound is the lack of ability for mimicking the basal levels of amylin in the fasting state. […] (Fig 6A) and thus a sustained release of amylin of an increasing in its t1/2 would serve as potential strategies for the restoration of basal hormone levels. […] Additionall ...

Data set [2] is described as follows: Pharmacokinetics after subcutaneous administration in mice (serum amylin by ELISA). Type of data set: in vivo. The settings on record: Swiss male mice, s.c., 400 μg peptide/kg; for level at time molar at 5 s / level at time molar at 0.5 min / level at time molar at 1 min / level at time molar at 2 min / level at time molar at 4 min / level at time molar at 0.8 h: male, Swiss, 400 ug peptide/kg, ELISA, read-out: amylin concentration (serum); for level at time molar at 5 s: Time 0.0833 (head: min); for level at time molar at 0.5 min: Time 0.5 (head: min); for level at time molar at 1 min: Time 1 (head: min); for level at time molar at 2 min: Time 2 (head: min); for level at time molar at 4 min: Time 4 (head: min); for level at time molar at 0.8 h: Time 48 (head: min). The procedure:
Swiss male mice (8 weeks old; n = 4 per group) were administrated of free or monoPEGylated human amylin (both at 400 μg peptide / kg body weight) by subcutaneous route. At the indicated time interval, blood was collected with glass capillary tubes from retro-orbital access and the serum was separated. The concentration of amylin in the plasma was evaluated by ELISA (Merck Millipore, cat # EZHA-52K) by following the manufacturer protocol. The sensitivity of the ELISA assay kit for the monoPEGylated human amylin product was similar to the non-conjugated human amylin as inferred from control analytical curves. In case needed, the mice plasma samples were diluted accordingly in order to achieve the desired concentration range of the ELISA kit. Glucagon was evaluated from the same serum samples, by using an ELISA kit (Merck Millipore, Cat # EZGLU-30K) according to instructions of the manufacturer.
Continuous lines are best fitting of single-exponential decay function to data. b) Modulation of glucagon. […] The raw data can be found in S2 File.

The subject of a further data set is Trypsin. The data set is described as follows: trypsin in 25 mM ammonium bicarbonate, after reduction with dithiothreitol and blockage with iodoacetamide. The following applies: 37°C, up to 18 h.
The target of data set [3] is T1, human receptor-activity modifying protein 3 Extracellular Topological Domain (human, UniProt O60896 28-117, fluorescein (FITC, below 1 mol per mol protein, position not stated)).
T1 construct: human receptor-activity modifying protein 3, extracellular topological domain, residues 28-117 of O60896; pET28b construct with a thrombin cleavage site after the N-terminal histidine tag; no cleavage is told; also called RAMP3-ETD; RAMP3
T1 sequence (looked up): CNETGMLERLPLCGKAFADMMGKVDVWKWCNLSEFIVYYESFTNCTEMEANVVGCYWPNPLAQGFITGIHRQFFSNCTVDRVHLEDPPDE
The data set is described as follows: fluorescence polarisation; fluorescence anisotropy of the FITC-labelled protein (50 nM murine amylin, CTR1 or RAMP3) against total concentration of unlabelled ligand; PBS pH 7.4, 25°C; ex 480 nm, em 520 nm, cut-off filter 515 nm. The settings on record: both partners purified.

The data set “murine amylin” concerns the target B2. Described as above. The following applies: both partners purified.
The mark [4] stands for this setting: fit of serum concentration vs time.
The mark [5] stands for this setting: mouse, in vivo, sc, replicate column 1.
[6] abbreviates: mouse, in vivo, sc, replicate column 2.

With `CC[C@H](C)[C@H](NC(=O)[C@H](C)NC(=O)CNC(=O)[C@H](Cc1ccccc1)NC(=O)[C@H](CC(N)=O)NC(=O)[C@H](CC(N)=O)NC(=O)[C@H](CO)NC(=O)[C@H](CO)NC(=O)[C@H](Cc1c[nH]cn1)NC(=O)[C@@H](NC(=O)[C@H](CC(C)C)NC(=O)[C@H](Cc1ccccc1)NC(=O)[C@H](CC(N)=O)NC(=O)[C@H](C)NC(=O)[C@H](CC(C)C)NC(=O)[C@H](CCCNC(=N)N)NC(=O)[C@H](CCC(N)=O)NC(=O)[C@@H](NC(=O)[C@H](C)NC(=O)[C@@H]1CSSC[C@H](NC(=O)[C@@H](N)CCCCN)C(=O)N[C@@H](CC(N)=O)C(=O)N[C@@H]([C@@H](C)O)C(=O)N[C@@H](C)C(=O)N[C@@H]([C@@H](C)O)C(=O)N1)[C@@H](C)O)C(C)C)C(=O)N[C@@H](CC(C)C)C(=O)N[C@@H](CO)C(=O)N[C@@H](CO)C(=O)N[C@H](C(=O)N[C@@H](CC(N)=O)C(=O)N[C@H](C(=O)NCC(=O)N[C@@H](CO)C(=O)N[C@@H](CC(N)=O)C(=O)N[C@H](C(=O)N[C@@H](Cc1ccc(O)cc1)C(N)=O)[C@@H](C)O)C(C)C)[C@@H](C)O` [human amylin], the “half-life (t1/2)” value in data set [1] is 15 to 20 min. Moreover, in data set [2] ((unit not given)), the “Half Life (One phase decay, best-fit value)” value is listed as 0.3893 and the “Tau (One phase decay, best-fit value)” value is on record as 0.5616. In data set [2] (setting [4]), the “K (One phase decay, best-fit value)” value turned out to be 1.781; the “Plateau (One phase decay, best-fit value)” value worked out at 184.9; the “Span (One phase decay, best-fit value)” value turned out to be 6701; the “Y0 (One phase decay, best-fit value)” value is reported as 6886. Moreover, in data set [2] (setting [5]), the level at time molar at 5 s came to 6630 nM, the level at time molar at 0.5 min came out at 4690 nM, the level at time molar at 1 min was 2720 nM and the level at time molar at 2 min came to 593 nM. In data set [2] (setting [5]), the level at time molar at 4 min came out at 198 nM and the level at time molar at 0.8 h was determined as 22.7 nM. Also, in data set [2] (setting [6]), the level at time molar at 5 s worked out at 6710 nM, the level at time molar at 0.5 min is 659 nM, the level at time molar at 1 min came to 423 nM and the level at time molar at 2 min stood at 324 nM. In data set [2] (setting [6]), the level at time molar at 4 min is 207 nM and the level at time molar at 0.8 h stood at 18.2 nM. The half-life (usually the time needed for the level to fall by half in the phase considered) in data set [2] (mouse, in vivo, sc, serum amylin by ELISA, single-exponential decay fit, n = 4 per group) turned out to be 23 min.

Regarding “KCNTATCATQRLANFLVHSSNNFGAILSSTNVGSNTY-CONH2”, in the data set with Trypsin, the cleaved bond result is “Arg11-L12”.

B1: monoPEGylated human amylin (peptide, UniProt P10997 34-70, looked up)
peptide: KCNTATCATQRLANFLVHSSNNFGAILSSTNVGSNTY-NH2
modifications: disulfide 2-7; also: one methoxy-PEG 5 kDa (mPEG succinimidyl carbonate) at an amino group of Lys1, N-terminal region
notes: human amylin (islet amyloid polypeptide, IAPP), the 37-residue hormone, amino acids 1 to 37; numbers count on: the mature protein; The PEG site was placed by trypsin digestion and MALDI-ToF-MS: fragment 12-37 is unmodified; also called PEGylated amylin; hAmylin-PEG
Turning to B1, the binding result (in data set [3]; with murine amylin) was “binds” throughout.

With B2, the binding result in data set [3] is listed as “binds”.

The values are drawn from paper PMC4598023 (PLoS ONE, 2015).
